Test results as given in PMC11087525 (Scientific Reports, 2024).

What was measured:
SARS-CoV-2 Delta variant [1] = type: cell-based
SARS-CoV-2 Delta variant [2] = settings: cited from earlier work

CC(C)(C)[C@H](NC(=O)C(F)(F)F)C(=O)N1C[C@H]2[C@@H]([C@H]1C(=O)N[C@H](C#N)C[C@@H]1CCNC1=O)C2(C)C [NMR, nirmatrelvir]
EC90 for the Delta variant multiplied by a factor of 3 (SARS-CoV-2 Delta variant [1]): 0.3 µg/mL | EC90 for the Delta variant (SARS-CoV-2 Delta variant [2]; conversion of 0.149 µM): ~ 100 ng/mL | EC90 (SARS-CoV-2 Delta variant [2]; used in PBPK simulation study): 149 nM
